According to patent US20250388529A1, “N-Substituted Phenylalkylamines and Their Use as Therapeutic Agents” (priority 2023, published 2025):
Values joined by “and” are separate entries in the source; they are usually repeats but may differ in a detail not shown here. Equal values may be shown once. “Also recorded” adds a separate entry of the source.

Key:
[1] = target: T1, HiBiT-5-HT2A (Homo sapiens, UniProt P28223); assay: NanoBRET Target Engagement competitive displacement of […], HiBiT-5-HT2A transiently expressed in HEK293 cells; conditions: equilibrium competitive displacement, Cheng-Prusoff; read-out: KI (binding affinity) at 5-HT2A
T1 construct: expressed in transfected cells; host or cells: HEK293 (transient)

[2] = target: T2, HiBiT-5-HT1A (Homo sapiens, UniProt P08908); assay: cell-based; type: binding
T2 construct: expressed in transfected cells; host or cells: HEK293 (transient)

[3] = target: T1, HiBiT-5-HT2A; assay: NanoBRET kinetic measurement of ligand binding to HiBiT-5-HT2A (Motulsky-Mahan)
[4] = target: T3, human 5-HT2C receptor (Homo sapiens, UniProt P28335); assay: Gq-mediated calcium flux assay, Flp-In 293 T-Rex inducible cells (agonist and antagonist mode); type: cell-based
T3 construct: expressed in transfected cells

[5] = target: human Nav1.1 (Homo sapiens, UniProt P35498); assay: Manual whole-cell patch clamp sodium current recording, HEK cells stably expressing human Nav1.1; type: cell-based; conditions: 10 μM
Protocol: (§1) Cell lines: Human Embryonic Kidney (HEK) 293 cells stably expressing human VGSC a subunit Nav1.1 (GenBank accession number NP_008851.3) were a gift from Dr. Massimo Mantegazza. Human VGSC β1 subunit GenBank accession number NP_001028.1) cDNA was transfected into this line to generate a second, stable line. Cells were cultured in Dulbecco's Modified Eagle Medium containing (4.5 g/L D-glucose, L-glutamine, 110 mg/L sodium pyruvate, 200 μg/mL G418, 100 U/mL penicillin/streptomycin). All cells were maintained in an incubator at 37° C. with 5% CO2.
Manual Sodium Current Recording: Sodium current (INa) was measured at room temperature using the manual whole-cell patch clamp technique with previously described electrophysiological methods (Chen et al., J Biol Chem., 2012; 287 (46): 39061-39069). Cells were plated on 12 mm diameter clear glass poly-D-lysine coated coverslips (Neuvitro) and used for electrophysiological recordings within 48 hours after plating. Cells were identified with an AIR upright confocal microscope (Nikon). […] Data were acquired with a Digidata 1440A interface (Molecular Devices) and analyzed using pClamp10 offline. […] All manual whole-cell INa recorded under XOB conditions was conducted after 3.9 minutes of perfusion unless indicated otherwise.

[6] = target: T4, human Nav1.1 and Navβ1 (Homo sapiens, UniProt P35498); assay: Manual whole-cell patch clamp sodium current recording, HEK cells expressing hNav1.1 and Navβ1; type: cell-based; conditions: for reduction in Nav1.1 peak INa: after 3.9 minutes of perfusion
Protocol: as §1
Manual Sodium Current Recording: Sodium current (INa) was measured at room temperature using the manual whole-cell patch clamp technique with previously described electrophysiological methods (Chen et al., J Biol Chem., 2012; 287 (46): 39061-39069). Cells were plated on 12 mm diameter clear glass poly-D-lysine coated coverslips (Neuvitro) and used for electrophysiological recordings within 48 hours after plating. Cells were identified with an AIR upright confocal microscope (Nikon). Micropipettes were obtained from 1.5 mm outer diameter capillary glass tubing (Harvard Apparatus) using a P-97 horizontal puller (Sutter Instrument Co.). Micropipettes were then polished using a MF-830 micro forge (Narishige) to obtain a resistance between 2.0 to 5.0 M (2. The intracellular solution contained the following (in mM): 1 NaCl, 125 N-methyl-D-glucamine, 2 MgCl2, 10 EGTA, 40 HEPES, 5 phosphocreatine-tris, 2 Mg-ATP, 0.2 Na2-GTP, 0.1 leupeptin, 270-275 mOsm, pH 7.2 with H2SO4. Extracellular solution contained the following (in mM): 120 NaCl, 1 BaCl2, 2 MgCl2, 0.2 CdCl2, 1 CaCl2), 20 sucrose, 10 glucose, 10 HEPES, 10 tetraethylammonium chloride, 300-305 mOsm, pH 7.35 with NaOH. Signals were amplified using a Multiclamp 700B amplifier (Molecular Devices). Data were acquired with a Digidata 1440A interface (Molecular Devices) and analyzed using pClamp10 offline. Pipette and whole-cell capacitance were fully compensated, and series resistance was predicted and compensated at 50%. Signals were low pass-filtered at 10 kHz, and data were sampled at 20 kHz. Residual linear capacity and leak currents were eliminated using online P/4 subtraction. Gravity-powered perfusion of XOB was used in all manual patch clamp experiments with a flow rate of 2-3 mL/min. All manual whole-cell INa recorded under XOB conditions was conducted after 3.9 minutes of perfusion unless indicated otherwise.

[7] = target: T4, human Nav1.1 and Navβ1; assay: cell-based

T1 sequence (P28223 whole entry): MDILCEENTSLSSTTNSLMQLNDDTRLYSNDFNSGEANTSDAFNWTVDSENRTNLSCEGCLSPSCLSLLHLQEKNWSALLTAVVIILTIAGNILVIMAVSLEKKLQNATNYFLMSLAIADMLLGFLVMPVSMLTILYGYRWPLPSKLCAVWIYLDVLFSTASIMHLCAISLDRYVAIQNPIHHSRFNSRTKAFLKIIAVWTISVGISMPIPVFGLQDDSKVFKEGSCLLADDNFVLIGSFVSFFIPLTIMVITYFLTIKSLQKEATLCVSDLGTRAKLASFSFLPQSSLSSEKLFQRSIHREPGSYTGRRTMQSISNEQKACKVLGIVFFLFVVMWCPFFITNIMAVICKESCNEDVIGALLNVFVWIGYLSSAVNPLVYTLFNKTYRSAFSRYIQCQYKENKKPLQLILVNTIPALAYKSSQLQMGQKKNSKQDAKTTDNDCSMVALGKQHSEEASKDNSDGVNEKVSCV
T2 sequence (P08908 whole entry): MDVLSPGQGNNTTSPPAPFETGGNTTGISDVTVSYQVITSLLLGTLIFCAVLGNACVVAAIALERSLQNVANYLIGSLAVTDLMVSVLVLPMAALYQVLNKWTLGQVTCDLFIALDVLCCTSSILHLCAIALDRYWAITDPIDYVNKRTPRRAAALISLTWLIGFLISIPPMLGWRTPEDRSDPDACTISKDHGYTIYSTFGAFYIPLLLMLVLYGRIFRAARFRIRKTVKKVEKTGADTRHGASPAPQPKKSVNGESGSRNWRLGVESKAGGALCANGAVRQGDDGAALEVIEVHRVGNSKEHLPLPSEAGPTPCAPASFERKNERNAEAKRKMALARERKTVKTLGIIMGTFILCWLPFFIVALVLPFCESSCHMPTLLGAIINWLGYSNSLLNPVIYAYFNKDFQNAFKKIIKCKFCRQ
T3 sequence (P28335 33-458): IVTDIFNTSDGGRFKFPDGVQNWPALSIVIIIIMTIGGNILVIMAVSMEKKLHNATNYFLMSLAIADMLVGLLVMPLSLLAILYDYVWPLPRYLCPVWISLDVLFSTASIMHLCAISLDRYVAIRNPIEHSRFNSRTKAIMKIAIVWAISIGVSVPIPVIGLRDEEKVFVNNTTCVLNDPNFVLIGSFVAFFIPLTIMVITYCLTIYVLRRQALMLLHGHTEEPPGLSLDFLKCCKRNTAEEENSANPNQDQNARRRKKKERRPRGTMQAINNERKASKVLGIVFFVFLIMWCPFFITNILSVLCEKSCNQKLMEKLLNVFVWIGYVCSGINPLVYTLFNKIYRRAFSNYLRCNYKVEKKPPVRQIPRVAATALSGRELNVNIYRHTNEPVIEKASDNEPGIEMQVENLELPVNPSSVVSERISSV

## COc1cc(CCNCCCCCCOCCCCc2ccccc2)c(OC)cc1Br [XOB, N-(4-bromo-2,5-dimethoxyphenethyl)-6-(4-phenylbutoxy)hexan-1-amine]
[1]
  Ki: 2600 nM and 2000 to 3000 nM
[2]
  binding affinity at 5-HT1A (in words): no measurable affinity; also recorded: negligible binding affinity
[2]; equilibrium competitive displacement, Cheng-Prusoff, read-out: KI (binding affinity) at 5-HT1A
  Ki: > 10000 nM
[3]
  association rate at 5-HT2A relative to serotonin (in words): two orders of magnitude slower
  association rate at 5-HT2A, fold slower than serotonin: about 24 fold
[4]; agonist mode, up to 10 μM
  agonist activity at 5-HT2C: little to no measurable agonist activity
[4]; antagonist mode, concentrations up to 10 μM
  inhibition of 5-HT-mediated calcium flux at 5-HT2C: < 50%
[5]; 10 minutes of washing out
  original baseline INa density at 0 mV recovered after washout: 17.5±3.64%
[5]; acute perfusion, three cells
  reduction of mean Nav1.1 peak INa density at 0 mV compared to baseline: 94.1±1.31%
[6]; 1 μM
  reduction in Nav1.1 peak INa: 35.3%
[6]; 1 μM, time 0 s, step −120 mV to 0 mV
  % Initial Peak INa: 100%
[6]; 1 μM, time 31.2 s
  % Initial Peak INa: 100.6%
[6]; 1 μM, time 62.4 s
  % Initial Peak INa: 93.0%
[6]; 1 μM, time 93.6 s
  % Initial Peak INa: 88.8%
[6]; 1 μM, time 124.8 s
  % Initial Peak INa: 87.0%
[6]; 1 μM, time 150.8 s
  % Initial Peak INa: 77.7%
[6]; 1 μM, time 182 s
  % Initial Peak INa: 75.1%
[6]; 1 μM, time 213.2 s
  % Initial Peak INa: 70.9%
[6]; 1 μM, time 234 s
  % Initial Peak INa: 64.7%
[6]; 5 μM
  reduction in Nav1.1 peak INa: 95.7%
[6]; 5 μM, time 0 s, step −120 mV to 0 mV
  % Initial Peak INa: 100%
[6]; 5 μM, time 31.2 s
  % Initial Peak INa: 95.4%
[6]; 5 μM, time 62.4 s
  % Initial Peak INa: 40.0%
[6]; 5 μM, time 93.6 s
  % Initial Peak INa: 23.7%
[6]; 5 μM, time 124.8 s
  % Initial Peak INa: 11.2%
[6]; 5 μM, time 150.8 s
  % Initial Peak INa: 9.3%
[6]; 5 μM, time 182 s
  % Initial Peak INa: 5.4%
[6]; 5 μM, time 213.2 s
  % Initial Peak INa: 6.4%
[6]; 5 μM, time 234 s
  % Initial Peak INa: 4.3%
[6]; 10 μM
  reduction in Nav1.1 peak INa: 98.6%
[6]; 10 μM, time 0 s, step −120 mV to 0 mV
  % Initial Peak INa: 100%
[6]; 10 μM, time 31.2 s
  % Initial Peak INa: 97.1%
[6]; 10 μM, time 62.4 s
  % Initial Peak INa: 94.8%
[6]; 10 μM, time 93.6 s
  % Initial Peak INa: 73.7%
[6]; 10 μM, time 124.8 s
  % Initial Peak INa: 28.5%
[6]; 10 μM, time 150.8 s
  % Initial Peak INa: 8.7%
[6]; 10 μM, time 182 s
  % Initial Peak INa: 2.9%
[6]; 10 μM, time 213.2 s
  % Initial Peak INa: 2.5%
[6]; 10 μM, time 234 s
  % Initial Peak INa: 1.4%
[7]
  Bottom of concentration response curve (normalized peak INa inhibition): 0.02
  Hill Slope of concentration response curve on peak INa: 1.45
